Measured values from ChEMBL document CHEMBL1201862, “PubChem BioAssay data set” (2004).
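Five compound concentrations were applied to cells in 96-well plates for 48 hours; endpoints were derived by simple linear interpolation of the resulting dose-response curve. GI50 is the concentration that inhibits growth by half.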 Active and inactive are the calls of the source. No stated cut-off is given here; in the data, active = GI50 up to about 1.1 µM and inactive = higher.

How the values were obtained:
Assay in all cases: NCI tumour cell line growth inhibition, 48 h
MCF7 = test system: MCF7
Hs-578T = test system: Hs-578T
SK-OV-3 = test system: SK-OV-3
K562 = test system: K562
MOLT-4 = test system: MOLT-4
NCI-H522 = test system: NCI-H522
OVCAR-4 = test system: OVCAR-4
ACHN = test system: ACHN
LOX IMVI = test system: LOX IMVI
SNB-19 = test system: SNB-19
NCI/ADR-RES = test system: NCI/ADR-RES
SK-MEL-5 = test system: SK-MEL-5
HOP-62 = test system: HOP-62
EKVX = test system: EKVX
SF-539 = test system: SF-539
SW-620 = test system: SW-620
CCRF-CEM = test system: CCRF-CEM
OVCAR-3 = test system: OVCAR-3
SNB-75 = test system: SNB-75

Measured: GI50

COc1cc(C2S/C(=C/c3ccccc3)C(=O)N2c2cccc([N+](=O)[O-])c2)cc(OC)c1OC (configuration not stated)
inactive: MCF7 47.8 µM | Hs-578T > 100 µM | SK-OV-3 > 100 µM | K562 51.5 µM | MOLT-4 70.3 µM | NCI-H522 38.5 µM | OVCAR-4 83.2 µM | ACHN > 100 µM | LOX IMVI 40.8 µM | SNB-19 > 100 µM | NCI/ADR-RES 42.2 µM | SK-MEL-5 67.3 µM | HOP-62 > 100 µM | EKVX 50 µM

CC(C)(C)c1cc(CC2C(=O)c3ccccc3C2=O)cc(C(C)(C)C)c1O
inactive: MCF7 3.66 µM | SF-539 3.65 µM | SW-620 2.51 µM | Hs-578T 3.94 µM | SK-OV-3 2.44 µM | K562 3.13 µM | MOLT-4 2.5 µM | NCI-H522 2.62 µM | OVCAR-4 4.08 µM | CCRF-CEM 4.04 µM | OVCAR-3 2.89 µM | ACHN 9.51 µM | LOX IMVI 3.81 µM | SNB-19 2.94 µM | NCI/ADR-RES 2.69 µM | SK-MEL-5 2.7 µM | HOP-62 2.54 µM | EKVX 5.37 µM

O=C1CC2C(=O)C1C(C(=O)O)C2C(=O)O (configuration not stated)
inactive: MCF7 > 100 µM | SF-539 > 100 µM | SW-620 > 100 µM | Hs-578T > 100 µM | SK-OV-3 > 100 µM | K562 > 100 µM | MOLT-4 > 100 µM | NCI-H522 > 100 µM | OVCAR-4 > 100 µM | CCRF-CEM > 100 µM | OVCAR-3 > 100 µM | ACHN > 100 µM | LOX IMVI > 100 µM | SNB-19 > 100 µM | NCI/ADR-RES > 100 µM | SK-MEL-5 > 100 µM | HOP-62 > 100 µM | EKVX > 100 µM

CC(C)c1c(O)ccc2c1CCC1C(C)(C)CCCC21C (configuration not stated)
inactive: MCF7 19.1 µM | SF-539 18.7 µM | SW-620 20 µM | Hs-578T 26.7 µM | SK-OV-3 18.9 µM | K562 21.6 µM | MOLT-4 19.1 µM | NCI-H522 16.9 µM | OVCAR-4 17.5 µM | CCRF-CEM 24.4 µM | OVCAR-3 18.6 µM | ACHN 17.1 µM | LOX IMVI 17.1 µM | SNB-19 18.2 µM | NCI/ADR-RES 16.9 µM | SK-MEL-5 16.3 µM | SNB-75 18.6 µM | EKVX 17.3 µM

C[N+](C)(N)Cc1csc(-c2ccc(Cl)cc2)n1
inactive: MCF7 > 100 µM | SF-539 > 100 µM | SW-620 > 100 µM | Hs-578T 23.9 µM | SK-OV-3 > 100 µM | K562 > 100 µM | NCI-H522 62.4 µM | OVCAR-4 > 100 µM | OVCAR-3 89.5 µM | ACHN > 100 µM | LOX IMVI > 100 µM | SNB-19 > 100 µM | NCI/ADR-RES > 100 µM | SK-MEL-5 61.5 µM | SNB-75 42.4 µM | HOP-62 75.7 µM | EKVX 64.3 µM

CCOC(=O)C(=[N+]=[N-])C(=O)CSC#N
inactive: MCF7 38.4 µM | SF-539 21.3 µM | SW-620 57.3 µM | Hs-578T > 100 µM | SK-OV-3 > 100 µM | MOLT-4 39.2 µM | NCI-H522 24.4 µM | OVCAR-4 40.6 µM | CCRF-CEM 35.1 µM | ACHN 22.3 µM | LOX IMVI 21.7 µM | SNB-19 97.5 µM | NCI/ADR-RES 96.4 µM | SK-MEL-5 35.5 µM | HOP-62 > 100 µM | EKVX > 100 µM

CC(=O)Oc1ccn2nc(C)c(Cc3c(C)nn4ccc(OC(C)=O)cc34)c2c1
inactive: MCF7 > 10 µM | SF-539 51.4 µM | SW-620 > 100 µM | Hs-578T 32.4 µM | K562 37.8 µM | MOLT-4 49.8 µM | NCI-H522 33.2 µM | OVCAR-4 > 100 µM | CCRF-CEM 27.9 µM | OVCAR-3 > 100 µM | ACHN 98.2 µM | LOX IMVI 79.1 µM | SNB-19 > 100 µM | NCI/ADR-RES > 100 µM | SK-MEL-5 > 100 µM | SNB-75 54.8 µM | HOP-62 48 µM | EKVX > 100 µM

c1ccc2c3c([nH]c2c1)C1c2[nH]c4ccccc4c2CCN1CC3
inactive: MCF7 10.1 µM | SF-539 17.5 µM | SW-620 16.2 µM | Hs-578T 17.3 µM | SK-OV-3 14.1 µM | K562 5.78 µM | MOLT-4 7.59 µM | NCI-H522 11.6 µM | OVCAR-4 4.49 µM | CCRF-CEM 13.5 µM | OVCAR-3 12.4 µM | ACHN 13.8 µM | LOX IMVI 11.6 µM | NCI/ADR-RES 2.27 µM | SK-MEL-5 13.6 µM | SNB-75 16.7 µM | HOP-62 13.6 µM | EKVX 6.12 µM
